Test results taken from ChEMBL document CHEMBL1139739, “Inhibition of Tpl2 kinase and TNFalpha production with quinoline-3-carbonitriles for the treatment of rheumatoid arthritis” (Bioorg Med Chem Lett, 2006).
Activity calls are given as the source filed them. The calls are words filed in the database; no cut-off is given here.

Columns and labels:
[1] = target: Mitogen-activated protein kinase kinase kinase 8 (Homo sapiens, UniProt P41279); assay: Inhibition of Tpl2 kinase by ELISA
Blood = assay: Inhibition of LPS-induced TNFalpha production in human whole blood by ELISA; format: functional
Monocyte [2] = assay: Inhibition of LPS-induced TNFalpha production in human monocytes by ELISA; format: functional
[3] = target: Proto-oncogene tyrosine-protein kinase Src (Homo sapiens) (UniProt P12931); assay: Inhibition of Src kinase
Chain of Proto-oncogene tyrosine-protein kinase Src (Homo sapiens) (P12931 2-536 limits assumed): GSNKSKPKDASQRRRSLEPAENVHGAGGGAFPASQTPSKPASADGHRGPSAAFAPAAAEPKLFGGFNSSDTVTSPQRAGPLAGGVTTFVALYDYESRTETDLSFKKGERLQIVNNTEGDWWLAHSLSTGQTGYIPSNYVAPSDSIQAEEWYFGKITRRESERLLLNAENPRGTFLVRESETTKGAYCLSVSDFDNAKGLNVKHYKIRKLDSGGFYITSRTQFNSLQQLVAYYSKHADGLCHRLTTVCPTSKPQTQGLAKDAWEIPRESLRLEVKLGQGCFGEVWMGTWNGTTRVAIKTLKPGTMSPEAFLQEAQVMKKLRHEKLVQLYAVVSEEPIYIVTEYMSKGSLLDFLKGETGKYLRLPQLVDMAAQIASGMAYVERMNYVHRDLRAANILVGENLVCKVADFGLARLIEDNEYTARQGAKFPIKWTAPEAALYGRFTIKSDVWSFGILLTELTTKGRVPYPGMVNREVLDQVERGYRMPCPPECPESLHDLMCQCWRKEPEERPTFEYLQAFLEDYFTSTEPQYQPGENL

[4] = target: Ribosomal protein S6 kinase beta-1 (Homo sapiens) (UniProt P23443); assay: Inhibition of S6 kinase
Chain of Ribosomal protein S6 kinase beta-1 (Homo sapiens) (P23443 whole entry, looked up): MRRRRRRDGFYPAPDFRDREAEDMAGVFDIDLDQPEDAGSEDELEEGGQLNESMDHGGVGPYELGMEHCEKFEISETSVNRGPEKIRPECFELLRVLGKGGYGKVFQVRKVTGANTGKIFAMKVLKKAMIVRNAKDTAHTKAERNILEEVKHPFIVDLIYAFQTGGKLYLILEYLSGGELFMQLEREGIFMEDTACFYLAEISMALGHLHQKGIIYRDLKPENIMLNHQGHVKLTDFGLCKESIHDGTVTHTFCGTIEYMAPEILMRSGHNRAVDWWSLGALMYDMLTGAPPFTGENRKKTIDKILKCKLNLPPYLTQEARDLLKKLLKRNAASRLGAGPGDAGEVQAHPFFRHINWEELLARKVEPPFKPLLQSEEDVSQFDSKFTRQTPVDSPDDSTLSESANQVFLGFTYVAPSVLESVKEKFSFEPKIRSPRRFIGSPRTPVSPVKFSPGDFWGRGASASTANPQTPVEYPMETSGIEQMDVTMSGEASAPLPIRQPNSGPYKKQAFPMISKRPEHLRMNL

[5] = target: Protein kinase C (PKC) (Homo sapiens) (UniProt O94806+P41743+P17252+P05129+Q05655+P05771+Q05513+Q02156+P24723+Q15139+Q04759); assay: Inhibition of PKC; format: protein assay
Monocyte [6] = assay: Inhibition of cJun phosphorylation in LPS-treated human monocytes; format: functional
Monocyte [7] = assay: Inhibition of MK2 phosphorylation in LPS-treated human monocytes; format: functional
Mus musculus [8] = assay: Inhibition of LPS/D-gal-induced TNFalpha production in C57B1/6 mouse at 25 mg/kg, ip; format: functional; conditions: C57B1/6, ip, route intraperitoneal
[9] = target: CaM kinase II (Homo sapiens) (UniProt Q13557+Q13555+Q13554+Q9UQM7); assay: Inhibition of CAMK2; format: protein assay
[10] = target: Dual specificity mitogen-activated protein kinase kinase 1 (Homo sapiens) (UniProt Q02750); assay: Inhibition of MEK
Chain of Dual specificity mitogen-activated protein kinase kinase 1 (Homo sapiens) (Q02750 whole entry): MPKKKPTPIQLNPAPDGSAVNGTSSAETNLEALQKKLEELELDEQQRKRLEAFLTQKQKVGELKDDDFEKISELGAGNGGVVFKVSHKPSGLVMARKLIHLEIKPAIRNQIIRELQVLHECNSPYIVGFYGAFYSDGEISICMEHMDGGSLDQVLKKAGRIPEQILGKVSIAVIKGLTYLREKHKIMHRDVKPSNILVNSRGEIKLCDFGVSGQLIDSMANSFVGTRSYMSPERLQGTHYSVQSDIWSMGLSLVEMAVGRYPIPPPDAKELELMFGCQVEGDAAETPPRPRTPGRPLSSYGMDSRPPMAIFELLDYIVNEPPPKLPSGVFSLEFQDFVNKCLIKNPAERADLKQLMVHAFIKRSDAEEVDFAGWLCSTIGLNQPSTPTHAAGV

[11] = target: MAP kinase-activated protein kinase 2 (Homo sapiens) (UniProt P49137); assay: Inhibition of MK2
Chain of MAP kinase-activated protein kinase 2 (Homo sapiens) (P49137 whole entry, looked up): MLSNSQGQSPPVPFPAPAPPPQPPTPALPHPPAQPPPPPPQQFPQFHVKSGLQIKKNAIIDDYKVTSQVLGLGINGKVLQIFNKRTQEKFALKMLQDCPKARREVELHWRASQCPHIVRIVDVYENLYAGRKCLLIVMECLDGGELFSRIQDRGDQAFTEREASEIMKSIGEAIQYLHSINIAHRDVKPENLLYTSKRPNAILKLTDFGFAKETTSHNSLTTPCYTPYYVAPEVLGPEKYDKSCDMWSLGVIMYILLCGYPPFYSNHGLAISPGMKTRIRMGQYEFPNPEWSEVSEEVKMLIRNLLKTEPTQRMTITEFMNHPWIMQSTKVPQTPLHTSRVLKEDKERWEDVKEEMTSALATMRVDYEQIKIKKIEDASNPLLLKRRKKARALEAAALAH

Monocyte [12] = assay: Inhibition of IkappaBalpha phosphorylation in LPS-treated human monocytes; format: functional
Monocyte [13] = assay: Inhibition of p38 kinase phosphorylation in LPS-treated human monocytes; format: functional
Mus musculus [14] = assay: Inhibition of LPS/D-gal-induced TNFalpha production in C57B1/6 mouse at 50 mg/kg, ip; format: functional; conditions: C57B1/6, ip, route intraperitoneal

Chain of Mitogen-activated protein kinase kinase kinase 8 (P41279 whole entry): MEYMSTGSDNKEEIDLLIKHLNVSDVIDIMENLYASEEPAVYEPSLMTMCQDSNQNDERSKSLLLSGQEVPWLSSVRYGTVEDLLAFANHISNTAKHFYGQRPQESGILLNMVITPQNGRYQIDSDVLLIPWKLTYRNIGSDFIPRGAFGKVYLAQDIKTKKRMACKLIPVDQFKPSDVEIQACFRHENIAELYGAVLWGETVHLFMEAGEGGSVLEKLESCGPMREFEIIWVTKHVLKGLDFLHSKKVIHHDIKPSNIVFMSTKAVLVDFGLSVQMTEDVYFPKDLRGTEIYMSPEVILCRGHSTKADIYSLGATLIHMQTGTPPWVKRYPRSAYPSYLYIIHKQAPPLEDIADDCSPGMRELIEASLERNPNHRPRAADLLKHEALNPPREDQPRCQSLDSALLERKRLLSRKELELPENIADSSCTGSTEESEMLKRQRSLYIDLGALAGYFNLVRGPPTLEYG

For `N#Cc1cnc2ccc(Nc3ccccc3)cc2c1Nc1ccc(F)c(Cl)c1`, the IC50 [1] was greater than 40000 nM.

`CCN1CCC[C@H]1CNc1ccc2ncc(C#N)c(Nc3ccc(F)c(Cl)c3)c2c1` gave an IC50 [1] of 180 nM.

With `N#Cc1cnc2ccc(NCc3nccs3)cc2c1Nc1ccc(F)c(Cl)c1` the inhibitory concentration (Blood) was greater than 20 µM and the inhibitory concentration (Monocyte [2]) was 0.6 µM.

`N#Cc1cccc(CNc2ccc3ncc(C#N)c(Nc4ccc(F)c(Cl)c4)c3c2)c1` was tested, and the IC50 [1] was 100 nM.

`CCN1CCC[C@@H]1CNc1ccc2ncc(C#N)c(Nc3ccc(F)c(Cl)c3)c2c1` was tested, and the IC50 [1] was 7000 nM.

`N#Cc1c(Nc2ccc(F)c(Cl)c2)c2cc(NCc3cnc[nH]3)ccc2[nH]c1=O` gave an IC50 [1] greater than 40000 nM.

For `N#Cc1cnc2ccc(NCCN3CCOCC3)cc2c1Oc1ccc(F)c(Cl)c1`, the IC50 [1] was greater than 40000 nM.

`N#Cc1cnc2ccc(NCc3ccc(S(N)(=O)=O)cc3)cc2c1Nc1ccc(F)c(Cl)c1` gave an IC50 [1] of 110 nM.

With `CCc1ncc(CNc2ccc3ncc(C#N)c(Nc4ccc(F)c(Cl)c4)c3c2)[nH]1` the IC50 [1] was 640 nM.

Molecule `N#Cc1cnc2ccc(NCC3CCCN3)cc2c1Nc1ccc(F)c(Cl)c1` (stereo not drawn) has an IC50 [1] of 30000 nM.

`CC(C)Oc1cc2ncc(C#N)c(Nc3ccc(F)c(Cl)c3)c2cc1NCc1cnc[nH]1` gave an IC50 [1] greater than 40000 nM.

With `N#Cc1cnc2ccc(NCc3ccccc3)cc2c1Nc1ccc(F)c(Cl)c1` the IC50 [1] was 210 nM.

For `N#Cc1cnc2ccc(NS(=O)(=O)c3ccccc3)cc2c1Nc1ccc(F)c(Cl)c1`, the IC50 [1] was 11500 nM.

In the case of `Cc1c(CNc2ccc3ncc(C#N)c(Nc4ccc(F)c(Cl)c4)c3c2)ncn1C`, the IC50 [1] is reported as 3 nM, the inhibitory concentration (Blood) is reported as 15.8 µM and the inhibitory concentration (Monocyte [2]) is reported as 0.4 µM.

With `N#Cc1cnc2ccc(NCCN3CCOCC3)cc2c1Sc1ccc(F)c(Cl)c1` the IC50 [1] was greater than 10000 nM.

For `N#Cc1cnc2ccc(NCc3c[nH]cn3)cc2c1Nc1ccc(F)c(Cl)c1`, the Activity [3] was “inactive”, the Inhibition [4] was greater than 10 µM and the Inhibition [5] was greater than 10 µM. For the same molecule, the Inhibition (Monocyte [6]) was 5 µM, the Inhibition (Monocyte [7]) was greater than 5 µM and the inhibition in vivo at 25 mg/kg (Mus musculus [8]) was 70%. The Activity [9] was “inactive”, the IC50 [10] was 2400 nM and the Activity [11] was “inactive”. The inhibitory concentration (Blood) was 3.3 µM, the inhibitory concentration (Monocyte [2]) was 0.46 µM and the Inhibition (Monocyte [12]) was greater than 5 µM. For the same molecule, the Inhibition (Monocyte [13]) was 2.11 µM.

`N#Cc1cnc2ccc(NCC3CCCO3)cc2c1Nc1ccc(F)c(Cl)c1` (stereo not drawn) was tested, and the IC50 [1] was 2200 nM.

With `Cc1ncn(CCN2CCOCC2)c1CNc1ccc2ncc(C#N)c(Nc3ccc(F)c(Cl)c3)c2c1` the inhibitory concentration (Blood) was 13.2 µM and the inhibitory concentration (Monocyte [2]) was 0.7 µM.

In the case of `CC(Nc1ccc2ncc(C#N)c(Nc3ccc(F)c(Cl)c3)c2c1)c1ccccn1` (stereo not drawn), the IC50 [1] is reported as 60 nM.

Work on `Cc1nc2ccc(NCc3cnc[nH]3)cc2c(Nc2ccc(F)c(Cl)c2)c1C#N` yielded an IC50 [1] of 19000 nM.

`N#Cc1cnc2cc(OC(F)(F)F)c(NCc3cnc[nH]3)cc2c1Nc1ccc(F)c(Cl)c1` gave an IC50 [1] greater than 40000 nM.

`Cc1[nH]cnc1CNc1ccc2ncc(C#N)c(Nc3ccc(F)c(Cl)c3)c2c1` showed an inhibition in vivo at 50 mg/kg (Mus musculus [14]) of 84%, an IC50 [1] of 3 nM and an inhibitory concentration (Blood) of 7.9 µM. The inhibitory concentration (Monocyte [2]) was 0.4 µM.

`N#Cc1cnc2cnc(NCc3ccccc3)cc2c1Nc1ccc(F)c(Cl)c1` was tested, and the IC50 [1] was 140 nM.

`N#Cc1cnc2ccc(NCc3cccc[n+]3[O-])cc2c1Nc1ccc(F)c(Cl)c1` gave an inhibition in vivo at 50 mg/kg (Mus musculus [14]) of 54%, an IC50 [1] of 11 nM and an inhibitory concentration (Blood) of 7.8 µM. For the same molecule, the inhibitory concentration (Monocyte [2]) was 1.7 µM.

With `N#Cc1cnc2ccc(NCc3ccccn3)cc2c1Nc1ccc(F)c(Cl)c1` the IC50 [1] was 90 nM.

`N#Cc1cnc2ccc(CCc3ccccc3)cc2c1Nc1ccc(F)c(Cl)c1` gave an IC50 [1] greater than 10000 nM.
